row,melting point [°C],Compound
1,195 to 197,CC(C)OCc1cc(O)cc2cc(-c3ccc(O)cc3)oc12
2,317 to 318,COc1cc2c3c(ccc(N)c3c1N)C(=O)N(O)C2=O
3,153 to 154,CCOC(=O)CCc1nnc(-c2nccs2)c2cc(OC)ccc12
4,217 to 219,O=C(Cc1ccc(C(F)(F)F)cc1)NCc1ccc2c(c1)CN(C1CCC(=O)NC1=O)C2=O (centres undefined)
5,155 to 157,CC1(C)C[C@H]2c3cccc4c3N(CCNC4)[C@H]2C1
6,112 to 114,COc1cc(C2=C(c3cn(CCCNC(=O)C(CO)NC(=O)OC(C)(C)C)c4ccccc34)C(=O)NC2=O)cc(OC)c1OC (centres undefined)
7,194 to 197,CCOC(=O)NN=Cc1c[nH]c(C(C)(C)C)n1
8,185,CC(C)(C)OC(=O)C[C@H](NC(=O)CNC(=O)c1csc(NC(=O)NCc2ccccc2)n1)C(=O)NCc1cccnc1
9,196 to 198,NNC(=S)NCc1ccc([N+](=O)[O-])cc1
10,147 to 149,Cc1cc(C)c(NC(=O)N(Cc2ccc3c(c2)Cc2ccccc2-3)C2CCCCC2)c(C)c1
11,20,O=C(O[C@@H]1CC[C@H]1Cl)c1ccccc1 (relative stereo)
12,260 to 261,Cn1nnnc1-c1cn(C)c2ccc(F)cc2c1=O
13,189,N#CC1=C(Nc2cc(C(F)(F)F)ccc2N)CSC1
14,143 to 144,O=C1NC(=O)C(S(=O)(=O)c2ccc(Cl)cc2)S1 (centres undefined)
15,196 to 198,Cc1ccc(C(=O)Nc2ccc(N3CCN(Cc4ccc[nH]4)CC3)cc2)c(-c2ccc(C(F)(F)F)cc2)c1
16,137 to 139,COc1ccc2cc(CCc3ccc(OCC(O)CNC(C)C)cc3)n(C)c(=O)c2c1 (centres undefined)
17,75 to 76,CS(=O)(=O)c1ccc(-n2nc(C(F)(F)F)cc2-c2ccc(-c3cccs3)cc2)cc1F
18,166 to 168,O=C(NCCCl)NC1OC(CO)C(O)C1O (centres undefined)
19,199 to 200,COCC(=O)OC(=C1C(=O)N(C(N)=O)c2cc(Cl)c(F)cc21)c1cccs1
20,74 to 76,CCCCCCCCCCNC(=O)N(C)O
21,61,N#CCOc1cccc2c1c1cccc3c1n2C(c1ccccc1)CO3 (centres undefined)
22,88 to 90,CCCCCCCCCCCCCCOc1cc(OCCCCCCCCCCCCCC)cc(C(=O)N(CC(=O)O)CC(=O)O)c1
23,111 to 114,CCOc1ccc(-c2nc(CCC(=O)O)cs2)cc1OCC
24,163 to 165,Fc1ccc(Nc2ncnc3cnc(OC4CCOC4)nc23)cc1Cl (centres undefined)

row,melting point [°C],Compound
1,142 to 144,CC(CNc1ccc(C(=O)O)cc1)Oc1cccc2ccccc12 (centres undefined)
2,141 to 143,CC1(C)CC(=O)c2c(-c3ccccc3)sc(-c3nccs3)c2C1
3,154 to 156,CCc1cccc2c3c([nH]c12)C1(CC(=O)O)CC1CC3 (centres undefined)
4,104 to 106,O=C(CCl)N(CCc1[nH]c2ccccc2c1-c1ccccc1)CC1CC1
5,182 to 183,c1ccc(NN2CCc3ccccc32)cc1
6,175 to 176,Cc1n[nH]c(CCCCn2cnc(NC(N)=NCC(F)(F)F)n2)n1
7,99 to 101,CCNC(=O)c1cccc(NCC(=O)NCCc2ccc(OC)c(OC)c2)c1
8,93 to 95,CN(C)c1ccc(NC(=O)C2C(=O)C3CC[C@](C)(C2=O)C3(C)C)cc1 (some centres undefined)
9,185 to 187,CC(C)c1ccccc1N1/C(=N\N=C/c2ccc(-c3ncn(-c4ccc(OC(F)(F)F)cc4)n3)cc2)SCC1(O)C(F)(F)F (centres undefined)
10,80 to 81,Clc1cc(-c2ccccn2)ccn1
11,140 to 141,CC(=O)OCCn1ccc(=O)c(O)c1Cc1ccccc1
12,104 to 107,CCCCCCCCCCCCCCCCS(=O)(=O)Nc1cccc2ccc(O)cc12
13,145 to 146,CCc1noc(-c2cn(-c3cccc(Oc4ccc([N+](=O)[O-])cc4)c3)cn2)n1
14,151 to 153,CN(C(=O)c1ccc(N2CCOCC2)cc1)[C@@H]1CCN(C(=O)C2CCN(C(=O)C3(O)CC3)CC2)C[C@H]1c1ccc(Cl)c(Cl)c1
15,259 to 263,N#Cc1cnc2cc(Cl)c([N+](=O)[O-])cc2c1Nc1ccc(F)c(Cl)c1
16,268,Cc1csc2c1c(-c1ccccc1Cl)nc(=O)n2C
17,144 to 147,O=[N+]([O-])C(Sc1ccccc1)=C1NCCCS1
18,52 to 54,COc1cc(C=O)cc(Cl)c1OCCBr
19,130 to 131,Cc1cc(CCC(=O)c2ccc(-c3ccc(C(F)(F)F)cc3)s2)ccc1OC(C)(C)C(=O)O
20,122 to 128,CCCc1c(OCCCCCOc2ccc(C(=O)c3cccc(C(=O)O)c3)cc2CCC(=O)O)ccc2c1OCCC2=O
21,175 to 180,Cn1c(-c2ccc(-c3ccccn3)cc2)cnc1[C@H](Cc1ccccn1)N(C=O)c1cc2cc(Cl)ccc2o1
22,100,OC1CSC(Oc2ccc(-c3cncnc3)nc2Cl)C(O)C1O (centres undefined)
23,207 to 208,CCCCn1c(=O)cc(-c2ccc(NCCO)cc2)[nH]c1=O
24,193 to 198,O=C(Cn1nc2ccccc2n1)Nc1ccc(-n2nc(C(F)(F)F)cc2C2CC2)nc1

row,melting point [°C],Compound
1,139 to 140,CC=C1CC2C3CCc4cc(OC)ccc4C3CCC2(C)C1=O (centres undefined)
2,108,CN(c1cccc2cc(-c3nccs3)[nH]c12)S(=O)(=O)N1CCCC1
3,240 to 242,CCn1c(=O)c2c(nc(/C=C/c3ccc(O)c(C)c3C)n2C)n(CC)c1=O
4,141 to 142,Cc1oc(-c2ccco2)nc1COc1ccc(CO)cc1Br
5,109 to 111,COc1ccc(C(=O)NCCc2cccs2)cc1
6,86 to 87,CCCCCCCN(Cc1ccc(CCC(C)C)cc1)C(=O)Nc1c(OC)ccc2ncccc12
7,172 to 174,COC1CC(CNC(=O)Nc2ccc([N+](=O)[O-])cc2)C(OC)O1 (centres undefined)
8,118 to 120,CCOC(=O)C1=CC(NC(=NC(=O)OC(C)(C)C)NC(=O)OC(C)(C)C)C(NC(C)=O)C(C(O)C2COC(C)(C)O2)O1 (centres undefined)
9,117 to 120,CC(=O)C(=Cc1ccc([N+](=O)[O-])o1)C(C)=O
10,181 to 182,COC(=O)C[C@H]1C[C@H](C(=O)O)Nc2cc(Cl)cc(Cl)c21 (relative stereo)
11,139,C/C(=C\CNC(=O)c1ccccc1)c1ccccc1
12,210 to 215,NC1=C([C@H]2CC[C@H](c3ccc(Cl)cc3)CC2)C(=O)c2ccccc2C1=O
13,123 to 124,COC(=O)c1ccc(S(=O)(=O)C2CCN(CCc3ccc(F)cc3F)CC2)cc1
14,192 to 195,CCOC(=O)c1cn(-c2ccccn2)c2oc(CN3CCOCC3)cc2c1=O
15,198 to 201,CCOC(C)(OCC)C(=O)c1c[nH]c2ncc(-c3cc(OC)c(OC)c(OC)c3)nc12
16,163,OC1(c2ccc(Cl)cc2)CCN(CCCc2nnc3n2CCCCC3)CC1
17,258 to 261,O=c1[nH]c2ccccc2c2c(C(O)CC3CCNCC3)n(-c3ccccc3)nc12 (centres undefined)
18,132 to 134,Nc1cc(Br)nn1-c1c(Cl)cc(C(F)(F)F)cc1Cl
19,154 to 158,CC(C)(C)C(=O)Nc1ccc(C(F)(F)F)cc1
20,58 to 60,COc1ccc2sc(=Nc3ccccc3)sc2c1
21,66,CC(C)=NNc1nc(C(Cl)(Cl)Cl)ns1
22,156,CN(C)C(=O)Nc1ccc(Oc2ccc3sncc3c2)cc1
23,194 to 195,CC(=O)OCC(=O)C1(OC(C)=O)C(C)CC2C3CC(C)C4=CC(=O)CCC4(C)C3(F)C(O)CC21C (centres undefined)
24,180,CCN1c2ncc(CC(F)c3ccncc3)cc2C(=O)N(C)c2ccc(Cl)nc21 (centres undefined)

row,melting point [°C],Compound
1,135 to 136,O=C(NCCOc1ccc(CC(Oc2ccc(F)c(F)c2)C(=O)O)cc1)c1ccc(-c2ccccn2)cc1 (centres undefined)
2,211 to 212,O=c1[nH]nc(CCc2cc(F)c(C(F)(F)F)c(F)c2)cc1O
3,118 to 121,CCOC(=O)C1=C(C)NC(CSCOC(C)=O)=C(C(=O)OCC)C1c1cccc([N+](=O)[O-])c1 (centres undefined)
4,108 to 110,Cc1nnc(F)c(-c2c(F)cc(F)cc2F)c1-c1ccc2ccccc2c1
5,194 to 196,CCCC(=O)ONC(=N)c1ccc(NC(=O)CCCC(=O)Nc2ccc(C(=N)NOC(=O)CCC)cc2)cc1
6,144,CC(C)(C)c1cc(C2N(c3ccccc3)CCN2c2ccccc2)cc(C(C)(C)C)c1O
7,165 to 166,Cc1c(C)c2c(c(C)c1NC(=O)C(O)C(C)(C)C)C(c1ccc(C(C)C)cc1)CO2 (centres undefined)
8,164 to 165,CC(Oc1cccc(C(=O)NCCN(O)C(N)=O)c1)c1ccccc1 (centres undefined)
9,206 to 222,COc1cc(Nc2c(C#N)cnc3cc4cc(OCCN5CCOCC5)c(OC)cc4cc23)c(Cl)cc1F
10,178,C=CCOC(=O)c1ccc(-c2nn(-c3ccc(C(=O)ON4C(=O)CCC4=O)cc3)c3ccccc23)cc1
11,208,COc1cc(C(=O)n2c3c(c4ccccc42)CC(C(=O)O)(C(=O)O)CC3)cc(OC)c1OC
12,176 to 178,CC(=O)NS(=O)(=O)c1cncc([N+](=O)[O-])c1
13,146 to 148,CCOc1nc(=O)c2cc(C(F)(F)F)cc([N+](=O)[O-])c2s1
14,160 to 161,COc1cccc2c3c(cnc12)CCCN3c1ccccc1C
15,210 to 214,O=C(O)c1cc2ccnc(Cl)c2[nH]1
16,163,COc1ccc(S(=O)C(C(=O)NO)C(C)C)cc1 (centres undefined)
17,152 to 153,CC1CN(Cc2ccccc2)c2c3c(nc4cccc(c24)O1)CCCC3 (centres undefined)
18,66 to 69,CCC(=CC(CSc1nnnn1-c1ccccc1)=NO)C(C)[N+](=O)[O-] (centres undefined)
19,129 to 130,CC1CN(c2cc3c(c(NCc4ccccc4)c2F)c(=O)c(C(=O)O)cn3C2CC2)CCN1 (centres undefined)
20,118 to 119,COc1cc(-c2ncnc(C(F)F)c2Cl)c(F)cc1Cl
21,192,Nc1nc2ccc(OS(=O)(=O)c3ccc(F)cc3)cc2[nH]1
22,239 to 243,Fc1ccc(Nc2ncnc3cnc(NC4CCNCC4)nc23)cc1Cl

row,Compound,melting point [°C]
1,COc1c2c(cc3c1OCO3)C(=O)CN(C)C2,116 to 119
2,CC1CCCC2C1N2CC(O)Cn1ccnc1[N+](=O)[O-] (centres undefined),124
3,CC(Cc1ccc(O)cn1)NC1CC1 (centres undefined),161
4,FC(F)(F)C1(c2cc(Cl)cc(Cl)c2)CC(c2ccc(Br)c3ccccc23)=NO1 (centres undefined),127 to 130
5,O=C(O)CNC(=O)CN1CCCC1=O,149 to 150
